Test results from US9259002B2, “Herbicidal composition and method of use thereof” (Syngenta Crop Protection LLC, priority 2006, dated 2016).

Experiments:
Format in all cases: in vivo
[1] = tested on: white clover (Trifolium repens); test: Glasshouse trial, post-emergence control of white clover
Procedure: A glasshouse trial was carried out. White clover seeds were sown into standard glasshouse potting mix (1:1 v/v Promix:Vero sand soil) contained in 10 cm square plastic pots. Treatments were replicated three times. […] When used, dithiopyr was applied at a rate of 70 g ai/ha or 140 g ai/ha. The adjuvant system was X-77 at 0.1% v/v in deionised water. 200 liters of herbicide/adjuvant system was used per hectare. General weed control was evaluated at 10 and 16 days after treatment (DAT). It is noted that all herbicides were applied at reduced field rates because herbicide effects are magnified in a glasshouse environment. Rates were chosen to give a 50 to 70% level of control with herbicides applied alone as this allows for detection of any synergistic effect when tank mixtures are used. […] The results were evaluated using the Colby formula. The expected result for (A+B) is (A+B)−(A×B/100) where A and B are the ‘observed’ results for A and B on their own. […] A glasshouse trial was carried out as described in Example 1, but using triclopyr (in the form of Turflon®) instead of dithiopyr. A glasshouse trial was carried out as described in Example 2, but using fluoroxypyr (in the form of Spotlight®) instead of triclopyr.

[2] = tested on: Medicago lupulina (black medic); test: Glasshouse trial, post-emergence control of black medic; settings: for Expected control (Colby), Plus Mesotrione at 100 g ai/ha: Colby formula; for Actual control, Plus Mesotrione at 100 g ai/ha: post-emergence
Procedure: A glasshouse trial was carried out. White clover seeds were sown into standard glasshouse potting mix (1:1 v/v Promix:Vero sand soil) contained in 10 cm square plastic pots. Treatments were replicated three times. Mesotrione (in the form Callisto® 480SE) was applied post-emergence to white clover (Trifolium repens) at either 50 g ai/ha or 100 g ai/ha with or without dithiopyr (in the form Dimension®). When used, dithiopyr was applied at a rate of 70 g ai/ha or 140 g ai/ha. The adjuvant system was X-77 at 0.1% v/v in deionised water. 200 liters of herbicide/adjuvant system was used per hectare. General weed control was evaluated at 10 and 16 days after treatment (DAT). It is noted that all herbicides were applied at reduced field rates because herbicide effects are magnified in a glasshouse environment. Rates were chosen to give a 50 to 70% level of control with herbicides applied alone as this allows for detection of any synergistic effect when tank mixtures are used. […] The results were evaluated using the Colby formula. The expected result for (A+B) is (A+B)−(A×B/100) where A and B are the ‘observed’ results for A and B on their own. […] A glasshouse trial was carried out as described in Example 1, but using triclopyr (in the form of Turflon®) instead of dithiopyr. A glasshouse trial was carried out as described in Example 2, but using Medicago lupulina (black medic) of white clover. A glasshouse trial was carried out as described in Example 4, but using fluoroxypyr instead of triclopyr.

[3] = tested on: Eleusine indica (goosegrass); test: Glasshouse trial, post-emergence control of goosegrass; settings: for Expected control (Colby), Plus Mesotrione at 200 g ai/ha: Colby formula; for Actual control, Plus Mesotrione at 200 g ai/ha: post-emergence
[4] = fluroxypyr 50 g ai/ha + mesotrione 100 g ai/ha
[5] = triclopyr 140 g ai/ha + mesotrione 200 g ai/ha
[6] = triclopyr 280 g ai/ha + mesotrione 200 g ai/ha
[7] = triclopyr 140 g ai/ha + mesotrione 100 g ai/ha

## Nc1c(Cl)c(F)nc(OCC(=O)O)c1Cl [Fluroxypyr, [(4-amino-3,5-dichloro-6-fluoro-2-pyridinyl)oxy]acetic acid]
[1]; fluroxypyr 50 g ai/ha + mesotrione 100 g ai/ha, Colby formula
  Expected control (Colby), Plus Mesotrione at 100 g ai/ha: 84
[1]; fluroxypyr 50 g ai/ha + mesotrione 100 g ai/ha, post-emergence
  Actual control, Plus Mesotrione at 100 g ai/ha: 91
[2]; [4]
  Expected control (Colby), Plus Mesotrione at 100 g ai/ha: 85
  Actual control, Plus Mesotrione at 100 g ai/ha: 90

## CSC(=O)c1c(C(F)F)nc(C(F)(F)F)c(C(=O)SC)c1CC(C)C [Dithiopyr, S,S′-dimethyl 2-difluoromethyl-4-isobutyl-6-trifluoromethylpyridine-=3,5-dicarbothioate]
[1]; dithiopyr 70 g ai/ha + mesotrione 50 g ai/ha tank mix, post-emergence, 10 DAT
  Actual control, Plus Mesotrione at 50 g ai/ha: 46.7
[1]; dithiopyr 70 g ai/ha + mesotrione 50 g ai/ha, 10 DAT, Colby formula
  Expected control (Colby), Plus Mesotrione at 50 g ai/ha: 37.4
[1]; dithiopyr 70 g ai/ha + mesotrione 100 g ai/ha tank mix, post-emergence, 10 DAT
  Actual control, Plus Mesotrione at 100 g ai/ha: 55.0
[1]; dithiopyr 70 g ai/ha + mesotrione 100 g ai/ha, 10 DAT, Colby formula
  Expected control (Colby), Plus Mesotrione at 100 g ai/ha: 52.6
[1]; dithiopyr 140 g ai/ha + mesotrione 50 g ai/ha tank mix, post-emergence, 10 DAT
  Actual control, Plus Mesotrione at 50 g ai/ha: 43.3
[1]; dithiopyr 140 g ai/ha + mesotrione 50 g ai/ha, 10 DAT, Colby formula
  Expected control (Colby), Plus Mesotrione at 50 g ai/ha: 44.2
[1]; dithiopyr 140 g ai/ha + mesotrione 100 g ai/ha tank mix, post-emergence, 10 DAT
  Actual control, Plus Mesotrione at 100 g ai/ha: 46.7
[1]; dithiopyr 140 g ai/ha + mesotrione 100 g ai/ha, 10 DAT, Colby formula
  Expected control (Colby), Plus Mesotrione at 100 g ai/ha: 57.8
[1]; dithiopyr alone, higher rate (140 g ai/ha), post-emergence
  control of white clover on its own: 18%
[1]; dithiopyr alone, lower rate (70 g ai/ha), post-emergence
  control of white clover on its own: 8%

## CS(=O)(=O)c1ccc(C(=O)C2C(=O)CCCC2=O)c([N+](=O)[O-])c1 [mesotrione, 2-(2′-nitro-4′-methylsulphonylbenzoyl)-1,3-cyclohexanedione]
[1]; mesotrione alone, higher rate (100 g ai/ha), post-emergence
  control of white clover on its own: 48%
[1]; mesotrione alone, lower rate (50 g ai/ha), post-emergence
  control of white clover on its own: 32%

## O=C(O)COc1nc(Cl)c(Cl)cc1Cl [Triclopyr, [(3,5,6-trichloro-2-pyridyl)oxy]acetic acid]
[3]; [5]
  Expected control (Colby), Plus Mesotrione at 200 g ai/ha: 32
  Actual control, Plus Mesotrione at 200 g ai/ha: 42
[3]; [6]
  Expected control (Colby), Plus Mesotrione at 200 g ai/ha: 35
  Actual control, Plus Mesotrione at 200 g ai/ha: 50
[1]; triclopyr 140 g ai/ha + mesotrione 100 g ai/ha, Colby formula
  Expected control (Colby), Plus Mesotrione at 100 g ai/ha: 84
[1]; triclopyr 140 g ai/ha + mesotrione 100 g ai/ha, post-emergence
  Actual control, Plus Mesotrione at 100 g ai/ha: 99
[1]; triclopyr 140 g ai/ha + mesotrione 200 g ai/ha, Colby formula
  Expected control (Colby), Plus Mesotrione at 200 g ai/ha: 90
[1]; triclopyr 140 g ai/ha + mesotrione 200 g ai/ha, post-emergence
  Actual control, Plus Mesotrione at 200 g ai/ha: 98
[2]; [7]
  Expected control (Colby), Plus Mesotrione at 100 g ai/ha: 91
  Actual control, Plus Mesotrione at 100 g ai/ha: 97
